6 compounds from patent publication US9181182B2, “S1P receptors modulators” (Akaal Pharma PTY LTD, priority 2008, dated 2015) can be followed below.

Molecules are shown by their SMILES.

One data set addresses S1P1 human receptor (Homo sapiens (Human), UniProt P21453). Briefly: S1P1 [35S]-GTPgamaS binding assay (agonist activity). In kind it is biochemical. The conditions noted are these: for EC50: GTPgamaS binding, agonist; for Efficacy (% of maximum): S1P1, relative to reference agonist S1P; for EC50S1P1/EC50S1P: potency at S1P1 relative to S1P. The protocol: Selected Compounds of the Examples were evaluated at Millipore Corporation, USA, using S1P1 receptor; [^35S]-GTPgamaS binding assay. A [^35S]-GTPgamaS binding assay at Millipore was conducted by GPCR Profiler™ Custom Service Laboratory, Temecula, Calif., Millipore, Inc. to monitor dose-dependent agonist selectivity for selected Examples against the S1P1 receptors. The assay was completed with sample compounds subjected to an eight-point, four-fold dose response curve with starting concentration of 10 μM. Selectivity was determined upon initial addition of compounds followed by a 30 minute incubation at 30° C. Following compound incubation, bounded [^35S]-GTPgamaS was determined by filtration and scintillation counting.
(§1) Independently, selected compounds were evaluated for S1P1 and S1P3 agonistic activity. The S1P1 assay system was GTPgama-S35 binding in membranes from CHO K1 cells, expressing S1P1 human receptor. The S1P3 assay system was calcium mobilization in CHO K1 cells expressing S1P3 human receptor. […] Compounds were tested initially at a concentration of 10 μM.

Another data set deals with S1P3 human receptor (Homo sapiens (Human), UniProt Q99500). As to the kind of experiment: S1P3 calcium mobilization in CHO K1 cells. It is filed as cell-based. The conditions noted are these: NA = Not Active. The protocol:
as §1
A general note: A change in cytosolic calcium serves as a functional read-out for many receptors and channels.

The test system of the next data set is female BALB/c mice. Briefly: Lymphopenia assay. In kind it is in vivo. The protocol:
The study was performed to determine the ability of the compounds of the invention to induce lymphopenia in female BALB/c mice. On day 0, 27 female BALB/c mice were randomised based on body weight into nine groups of three mice each. Animals received a single i.p. administration of Test compounds and blood was collected by cardiac puncture either 6 or 24 h after administration. […] Changes to other haematological parameters were not observed.

Data set [1] concerns Human promyelocytic leukemia (HL-60) cells. As to the kind of experiment: Cell viability (growth inhibition) assay, MTS. It is filed as cell-based. The conditions noted are these: Homo sapiens, 50% reduction in cell viability of HL-60 cells, 48 hr incubation. The procedure:
In order to measure the apoptotic effect of compounds on the metabolic activity of viable cells, the following assay was performed on Human promyelocytic leukemia cells. The assay utilises the tetrazolium compound (3-(4,5-dimethylthiazol-2-yl)-5-(3-carboxymethoxyphenyl)-2-(4-sulfophenyl)-2H-tetrazolium, inner salt; (MTS) and an electron coupling reagent (phenazine methosulfate; (PMS). MTS is bioreduced by cells into a formazan product the optical absorbance of which is measured directly from 96 well assay plates. The conversion of MTS into aqueous, soluble formazan is accomplished by dehydrogenase enzymes found in metabolically active cells. The quantity of formazan product as measured by the amount of 490 nm absorbance is directly proportional to the number of living cells in culture.
The assay was based on the National Cancer Institute (NCI) protocol, briefly, cells were grown in RPMI 1640 media supplemented with 10% FCS (foetal calf serum) and kept at 37° C. in a humidified environment with 5% CO2.
For the growth inhibition assay, Human promyelocytic leukemia (HL-60) cells were seeded at a density of 10,000 cells per well in 96 well plates in a volume of 100 μl and allowed to grow for 24 h. Compounds were serially diluted in DMSO at concentrations 100 fold higher than used in the assay (100×). Compounds were freshly prepared for each experiment. The 100× stocks were then diluted to 2× stocks into media and immediately, 100 μl of this 2× stock was added to the cells to create the desired final concentration of drug with a DMSO concentration of 1%. One row of each 96 well plate was treated with DMSO alone as a control. Cells were then incubated for a further 48 hr. Metabolic activity was determined using MTS (Promega) (90% 1.6 mg/ml MTS, 10% 1.6 mg/ml PMS (phenazine methosulfate) made fresh in PBS). 50 μl of this mix was added to all wells of the plates and allowed to incubate for 1.5-2 hr. Plates were shaken gently for about 15 min and absorbance was read on a plate reader at 490 nm. Averages were taken of the readings at each point with standard deviation and plotted using MicroCal Origin.

[2] abbreviates: 3 mg/kg and 30 mg/kg single i.p., 6 and 24 h, compared to untreated animals.

Sequence of S1P3 human receptor (Q99500 whole entry): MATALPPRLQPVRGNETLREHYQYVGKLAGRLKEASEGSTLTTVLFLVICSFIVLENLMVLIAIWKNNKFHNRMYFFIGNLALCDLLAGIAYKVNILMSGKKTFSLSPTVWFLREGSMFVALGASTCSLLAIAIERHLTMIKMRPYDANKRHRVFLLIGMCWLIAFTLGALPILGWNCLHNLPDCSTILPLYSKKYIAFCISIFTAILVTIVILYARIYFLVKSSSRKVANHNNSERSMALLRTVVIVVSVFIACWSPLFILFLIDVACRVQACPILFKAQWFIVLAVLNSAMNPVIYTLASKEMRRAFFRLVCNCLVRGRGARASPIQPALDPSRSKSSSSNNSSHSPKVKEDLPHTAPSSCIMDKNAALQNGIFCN
Sequence of S1P1 human receptor (P21453 whole entry): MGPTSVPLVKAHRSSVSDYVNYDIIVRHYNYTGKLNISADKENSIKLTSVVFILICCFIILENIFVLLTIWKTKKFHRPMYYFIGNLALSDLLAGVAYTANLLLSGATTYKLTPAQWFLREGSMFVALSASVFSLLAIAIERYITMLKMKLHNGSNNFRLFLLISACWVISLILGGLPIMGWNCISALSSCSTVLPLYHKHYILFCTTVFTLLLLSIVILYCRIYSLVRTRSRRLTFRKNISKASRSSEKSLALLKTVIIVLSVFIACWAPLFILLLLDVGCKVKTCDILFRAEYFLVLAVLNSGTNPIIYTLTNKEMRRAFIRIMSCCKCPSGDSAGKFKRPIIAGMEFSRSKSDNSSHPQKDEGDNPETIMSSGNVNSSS

On to `CCOc1ccc(-c2nc(-c3ccc4c(c3)CN(CC(N)(CO)CO)C4)no2)cc1OCC` [Example 65, 2-Amino-2-((5-(5-(3,4-diethoxyphenyl)-1,2,4-oxadiazol-3-yl)isoindolin-2-yl)methyl)propane-1,3-diol], for which, on S1P1 human receptor, a half-maximal effect (EC50) was put at 7.4 nM, the “Efficacy (% of maximum)” value was determined as 97% and the EC50S1P1/EC50S1P was 0.16. Besides, at S1P3 human receptor, the EC50 came to 390 nM.
Consider `CCOc1ccc(-c2nc(-c3cccc4c3CCN4CC(N)(CO)CO)no2)cc1OCC` [Example 34, 2-Amino-2-((4-(5-(3,4-diethoxyphenyl)-1,2,4-oxadiazol-3-yl)indolin-1-yl)methyl)propane-1,3-diol], for which, in the data set on female BALB/c mice (setting [2]), the lymphocyte counts entry was “decrease” and the “total white blood cell counts” value is listed as “decrease”. The “Changes to other haematological parameters” value with female BALB/c mice (single i.p., 6 or 24 h) is listed as “not observed”. Moreover, at S1P1 human receptor, the EC50 was 6.8 nM, the “Efficacy (% of maximum)” value is listed as 92% and the EC50S1P1/EC50S1P was 0.4. This compound came in with an IC50 in data set [1] of 1820 ± 500 nM. For the same compound, the EC50 at S1P3 human receptor turned out to be 1290 nM.
Regarding `CCCc1ccc(-c2nc(-c3cccc4c3CCN4CC(N)(CO)CO)no2)cc1CCC` [Example 47, 2-Amino-2-((4-(5-(3,4-dipropylphenyl)-1,2,4-oxadiazol-3-yl)indolin-1-yl)methyl)propane-1,3-diol], at S1P1 human receptor, the EC50 came to 2.4 nM, the “Efficacy (% of maximum)” value worked out at 94% and the EC50S1P1/EC50S1P is given as 0.33. For the same compound, the EC50 at S1P3 human receptor is 965 nM.
On to `CCOc1ccc(-c2nc(-c3ccc4c(c3)CCN4CC(N)(CO)CO)no2)cc1OCC` [Example 40, 2-Amino-2-((5-(5-(3,4-diethoxyphenyl)-1,2,4-oxadiazol-3-yl)indolin-1-yl)methyl)propane-1,3-diol], for which, on S1P1 human receptor, the midpoint of the response, the EC50, lay at 344 nM; the “Efficacy (% of maximum)” value is recorded as 117%; the EC50S1P1/EC50S1P is on record as 36.41. Besides, it took 3100 nM to reach half-maximal inhibition in data set [1] (IC50). In addition, the EC50 at S1P3 human receptor was above 15600 nM.
As for `CCCOc1ccc(-c2nc(-c3cccc4c3CCN4CC(N)(CO)CO)no2)cc1Cl` [Example 50, 2-Amino-2-((4-(5-(3-chloro-4-propoxyphenyl)-1,2,4-oxadiazol-3-yl)indolin-1-yl)methyl)propane-1,3-diol], at S1P1 human receptor, the EC50 was 17.9 nM, the “Efficacy (% of maximum)” value is given as 87% and the EC50S1P1/EC50S1P came to 1.3. This compound also displayed an IC50 in data set [1] of 3000 ± 170 nM.
Regarding `CCCOc1ccc(-c2nc(-c3cccc4c3CCN4CC(N)(CO)CO)no2)cc1OCCC` [Example 43, 2-Amino-2-((4-(5-(3,4-di-propoxyphenyl)-1,2,4-oxadiazol-3-yl)indolin-1-yl)methyl)propane-1,3-diol], on S1P1 human receptor, the EC50 was determined as 18 nM, the “Efficacy (% of maximum)” value is given as 89% and the EC50S1P1/EC50S1P came to 2.22. In addition, the EC50 at S1P3 human receptor came out at 3100 nM.

Usually EC50 stands for the concentration at which the effect is half-maximal. As usually defined, the IC50 is the point on the concentration scale where inhibition reaches its midpoint. Low values mean inhibition by little substance, high ones a need for much substance.
